Results published in PubChem BioAssay (NCI).
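Cultured in 96-well plates, cells were exposed to test compound for 48 hours across five concentrations. TGI: total growth inhibition.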

Key:
Assay in all cases: growth of human tumour cells (NCI), 48 h
NCI-H23 lung = tested on: NCI-H23 lung
A498 renal = tested on: A498 renal
UO-31 renal = tested on: UO-31 renal
OVCAR-8 ovarian = tested on: OVCAR-8 ovarian
SF-268 CNS = tested on: SF-268 CNS
MALME-3M melanoma = tested on: MALME-3M melanoma
RXF 393 renal = tested on: RXF 393 renal
DU-145 prostate = tested on: DU-145 prostate
UACC-62 melanoma = tested on: UACC-62 melanoma
NCI/ADR-RES ovarian = tested on: NCI/ADR-RES ovarian
U251 CNS = tested on: U251 CNS
HCT-116 colon = tested on: HCT-116 colon
A549 NSCLC = tested on: A549 NSCLC
HS 578T breast = tested on: HS 578T breast
CAKI-1 renal = tested on: CAKI-1 renal
SF-295 CNS = tested on: SF-295 CNS
KM12 colon = tested on: KM12 colon
SNB-19 CNS = tested on: SNB-19 CNS
TK-10 renal = tested on: TK-10 renal
SK-OV-3 ovarian = tested on: SK-OV-3 ovarian
MDA-MB-435 = tested on: MDA-MB-435
HOP-62 NSCLC = tested on: HOP-62 NSCLC
SW-620 colon = tested on: SW-620 colon
UACC-257 melanoma = tested on: UACC-257 melanoma
HCC-2998 colon = tested on: HCC-2998 colon
K-562 leukemia = tested on: K-562 leukemia
SNB-75 CNS = tested on: SNB-75 CNS
HCT-15 colon = tested on: HCT-15 colon
CCRF-CEM leukemia = tested on: CCRF-CEM leukemia
COLO 205 colon = tested on: COLO 205 colon
RPMI-8226 leukemia = tested on: RPMI-8226 leukemia
SK-MEL-28 melanoma = tested on: SK-MEL-28 melanoma
NCI-H460 lung = tested on: NCI-H460 lung
SF-539 CNS = tested on: SF-539 CNS
OVCAR-4 ovarian = tested on: OVCAR-4 ovarian
SR leukemia = tested on: SR leukemia
SK-MEL-5 melanoma = tested on: SK-MEL-5 melanoma
HOP-92 NSCLC = tested on: HOP-92 NSCLC
T-47D breast = tested on: T-47D breast
NCI-H522 lung = tested on: NCI-H522 lung
LOX IMVI melanoma = tested on: LOX IMVI melanoma
HT29 colon = tested on: HT29 colon
NCI-H226 lung = tested on: NCI-H226 lung
OVCAR-5 ovarian = tested on: OVCAR-5 ovarian
786-0 renal = tested on: 786-0 renal
SK-MEL-2 melanoma = tested on: SK-MEL-2 melanoma
EKVX NSCLC = tested on: EKVX NSCLC
IGROV1 ovarian = tested on: IGROV1 ovarian
PC-3 prostate = tested on: PC-3 prostate
SN12C renal = tested on: SN12C renal
MDA-MB-231 breast = tested on: MDA-MB-231 breast
MOLT-4 leukemia = tested on: MOLT-4 leukemia
HL-60(TB) leukemia = tested on: HL-60(TB) leukemia
ACHN renal = tested on: ACHN renal

Measured: TGI

O=C1NC(=S)N(c2ccccc2)C1=O
> 100 µM: all assays above
